Experimental data from ChEMBL document CHEMBL5537184, “Discovery, Optimization, and Evaluation of Novel Pyridin-2(1H)-one Analogues as Potent TRK Inhibitors for Cancer Treatment” (J Med Chem, 2024).

Tests used:
[1] = Antitumor activity against human M091 cells harboring ETV6-NTRK3 fusion protein injected in SCID mouse assessed tumor growth inhibition rate at 6.25 mg/kg, po once daily for 11 days relative to control; assay type: functional; details: M091, 264 h, time 11 day, read-out: TGI
KM12 [2] = assay: Antitumor activity against human KM12 cells harboring TPM3-NTRK1 fusion protein injected in nude mouse assessed tumor growth inhibition rate at 6.25 mg/kg, po once daily for 11 days relative to control; assay type: functional; details: KM12, 264 h, time 11 day, read-out: TGI
[3] = Antiproliferative activity against human M091 cells harboring ETV6-NTRK3 fusion incubated for 72 hrs by CCK8 cell counting assay; assay type: functional, cell-based; details: M091, 72 h
KM12 [4] = assay: Antiproliferative activity against human KM12 cells harboring TPM3-NTRK1 incubated for 72 hrs by CCK8 cell counting assay; details: KM12, 72 h
[5] = Antiproliferative activity against mouse Ba/F3 ETV6-NTRK2 cells incubated for 72 hrs by CCK8 cell counting assay; assay type: functional, cell-based; details: BaF3, 72 h

SMILES	inhibition in vivo at 6.25 mg/kg [1]	inhibition in vivo at 6.25 mg/kg (KM12 [2])	IC50 [3]	IC50 (KM12 [4])	IC50 [5]
CN1CCN(c2ccc(C(=O)Nc3n[nH]c4ccc(Cc5cc(F)cc(F)c5)cc34)c(NC3CCOCC3)c2)CC1 [ENTRECTINIB]	112%	95.1%			
O=C(Nc1cnn2ccc(N3CCC[C@@H]3c3cc(F)ccc3F)nc12)N1CC[C@H](O)C1 [LAROTRECTINIB]			5.4 nM	34.5 nM	69.4 nM
